Data taken from patent US5807535A, “Metal complexes of hydroxyaryl containing aminocarboxylic acid chelating agents” (Australian Nuclear Science & Technology Organisation, priority 1992, dated 1998).

Assay: Biodistribution of 67Ga complexes in mice
Type: in vivo, balb/c mice
Description: To ligand (50 μL, 10 mg/mL, 0.2 M NaOAc, […]) was added ^67 Ga citrate (18.5 MBq) and the resultant mixture diluted to 1 mL (0.2 M NaOAc, pH 7). The pH was adjusted to 12 with 1 M NaOH (20 μL) and heated at 40° C. for 40 min. The final volume was adjusted (to 5 mL) with saline and sterilised by filtering through a 0.22 μm filter.
Each animal was injected via tail vein with ^67 Ga complex (100 μL, ~3.7×10^5 Bq). Animals were sacrificed at various time intervals (5 animals per time point/6 time points). Data are illustrated in FIG. 26-30 and in Tables 13-17.
Each ^67 Ga-ligand complex has been evaluated in balb/c mice. […] (see FIG. 26-30).

| Structure (SMILES) | biodistribution bone (1 min) | biodistribution kidney (1 min) | biodistribution liver (1 min) | biodistribution muscle (1 min) | biodistribution skin (1 min) | biodistribution spleen (1 min) | biodistribution bone (3 min) | biodistribution kidney (3 min) | biodistribution liver (3 min) | biodistribution muscle (3 min) | biodistribution skin (3 min) | biodistribution spleen (3 min) | biodistribution bone (5 min) | biodistribution kidney (5 min) | biodistribution liver (5 min) | biodistribution muscle (5 min) | biodistribution skin (5 min) | biodistribution spleen (5 min) | biodistribution bone (10 min) | biodistribution kidney (10 min) | other results |
| --- | --- | --- | --- | --- | --- | --- | --- | --- | --- | --- | --- | --- | --- | --- | --- | --- | --- | --- | --- | --- | --- |
| O=C(O)CN(CCN(CC(=O)O)CC(=O)Nc1ccc(Cl)cc1O)CC(=O)Nc1ccc(Cl)cc1O [Compound 2] | 6.16 % ID | 9.54 % ID | 24.9 % ID | 20.55 % ID | 11.55 % ID | 0.29 % ID | 2.82 % ID | 4.62 % ID | 35.52 % ID | 8.63 % ID | 9.27 % ID | 0.1 % ID | 2.13 % ID | 3.52 % ID | 33.09 % ID | 5.50 % ID | 8.04 % ID | 0.07 % ID | 0.74 % ID | 1.00 % ID | biodistribution lungs (1 min): 1.79 % ID; biodistribution lungs (3 min): 0.56 % ID; biodistribution lungs (5 min): 0.41 % ID; biodistribution liver (10 min): 23.34 % ID; biodistribution lungs (10 min): 0.12 % ID; biodistribution muscle (10 min): 2.00 % ID; biodistribution skin (10 min): 3.80 % ID; biodistribution spleen (10 min): 0.02 % ID; biodistribution bone (30 min): 0.50 % ID; biodistribution kidney (30 min): 0.21 % ID; biodistribution liver (30 min): 3.7 % ID; biodistribution muscle (30 min): 2.00 % ID; biodistribution skin (30 min): 0.88 % ID; biodistribution spleen (30 min): 0.02 % ID; biodistribution bone (120 min): 0.38 % ID; biodistribution kidney (120 min): 0.01 % ID; biodistribution liver (120 min): 0.92 % ID; biodistribution muscle (120 min): 0.31 % ID; biodistribution skin (120 min): 0.17 % ID; biodistribution spleen (120 min): 0 % ID |
| CC(C)(C)c1ccc(O)c(NC(=O)CN(CCN(CC(=O)O)CC(=O)Nc2cc(C(C)(C)C)ccc2O)CC(=O)O)c1 [Compound 4] | 3.20 % ID | 6.91 % ID | 39.06 % ID | 11.34 % ID | 11.94 % ID | 0.15 % ID | 1.31 % ID | 2.12 % ID | 43.23 % ID | 5.08 % ID | 8.12 % ID | 0.04 % ID | 0.98 % ID | 1.59 % ID | 39.61 % ID | 4.29 % ID | 8.22 % ID | 0.03 % ID | 0.20 % ID | 0.43 % ID | biodistribution liver (10 min): 8.29 % ID; biodistribution muscle (10 min): 0.65 % ID; biodistribution skin (10 min): 2.92 % ID; biodistribution spleen (10 min): 0.00 % ID; biodistribution bone (30 min): 0.13 % ID; biodistribution kidney (30 min): 0.17 % ID; biodistribution liver (30 min): 1.06 % ID; biodistribution muscle (30 min): 0.32 % ID; biodistribution skin (30 min): 0.18 % ID; biodistribution spleen (30 min): 0.00 % ID; biodistribution kidney (120 min): 0.07 % ID; biodistribution liver (120 min): 0.29 % ID; biodistribution muscle (120 min): 0.21 % ID; biodistribution skin (120 min): 0.15 % ID; biodistribution spleen (120 min): 0.01 % ID |
